Key:
[1] = Determination of particle size and polydispersity index of lipid nanoparticles (Malvern particle size analyzer); format: physicochemical
Description: (§1) In this example, the total lipid phase concentration of 1 mg/mL was formulated in anhydrous ethanol at the molar ratio of ionizable lipid (Compound 1, Compound 11 or Compound 12):helper lipid (DSPC or DOPE):cholesterol:DMG-PEG2000=50%:10%:38.5%:1.5%. Luc-eGFP mRNA at the corresponding concentration was dissolved in 50 mM citric acid buffer with an aqueous buffer solution of pH4.0. The mass ratio of mRNA to the total lipids was 1:30.
(§2) LNPs were prepared using the formulation-screening chip from Micro & Nano at a total flow rate of 12 ml/min and a flow rate ratio of 1:3 between the lipid phase and the aqueous phase. The lipid nanoparticles were collected and dialyzed with PBS overnight at 4° C. to remove ethanol and acidic buffer salts. The dialysate volume was 400 times or more the sample volume. The dialyzed sample was filtered through a 0.2-μm filter membrane. Lipid nanoparticles could also be prepared by other methods, such as injection mixing, in addition to using microfluidic chips. After being dialyzed and filtered, the sample was concentrated using a 10 kDa cellulose ultrafiltration membrane. The centrifugation parameter was 1000 g to 2000 g, and the centrifugation time was 30 min to 1 hour. The centrifugation temperature was 4° C.
2. Determination of particle size: The particle size and polydispersity index (PDI) of the prepared lipid nanoparticles were measured using a Malvern particle size analyzer.
(§3) The nucleic acid delivery efficiency of lipid nanoparticles was characterized by observing the fluorescence expression in mice. The lipid nanoparticles were prepared at a molar ratio of ionizable lipid (Compound 17, Compound 15, Compound 18, Compound 2 or MC3):DSPC:cholesterol:DSPE-PEG2000=50%:10%:39.5%:0.5%. Female C57/BL6 mice weighing 18 to 22 g were selected. After acclimation, the Luc-eGFP mRNA-encapsulated lipid nanoparticles were injected subretinally into mice (both eyes) at a dose of 0.9 μg (±10%) mRNA (1 μl, in a sterile PBS solution) per eye. In order to observe the expression of luciferase, the luciferase substrate was dissolved into a sterile PBS solution and prepared into a solution at a concentration of 30 mg/ml.

Luc-eGFP mRNA = assay: Determination of encapsulation efficiency of mRNAs (Quant-iT RiboGreen RNA kit); format: physicochemical
Description: as §1, §2
For mRNA-encapsulated lipid nanoparticles, the assay specified in the Quant-iT™ RiboGreen® RNA kit could be employed. The specific operations were as follows: The sample was diluted 10 to 20 folds with a TE buffer solution (10 mM Tris-HCl, 1 mM EDTA, pH 7.5). An equal volume of demulsifier (2% Triton X-100) was added to the sample to be tested and then the solution was diluted 10 to 20 folds again. The RiboGreen® reagent was diluted 100 folds in the TE buffer solution, and 100 μl of the diluted solution was added to a 96-well plate. 100 μl of the sample to be tested was added to the corresponding 96-well plate. Meanwhile, a standard curve was plotted using the mRNA standard. The fluorescence value at 520 nm excited by 480 nm excitation light was read using a microplate reader. The concentrations of the encapsulated and free mRNAs were calculated based on the standard curve.
as §3

luciferase [2] = assay: In vivo delivery of luciferase mRNA in animals, tail vein injection, chemiluminescence imaging; parameters: species or system Female C57/BL6 mice; details: Luc-eGFP mRNA 0.5 mg/kg, mice, 6 h after injection
Description: as §1
The nucleic acid delivery efficiency of lipid nanoparticles was characterized by observing the fluorescence expression in mice. The Luc-eGFP mRNA-encapsulated lipid nanoparticles prepared in Example 9 were injected at a certain dose into mice via the tail vein. Female C57/BL6 mice weighing 18 to 22 g were randomly grouped, with two mice in each group. After acclimation, Luc-eGFP mRNA-encapsulated LNPs (in a sterile PBS solution) were injected via the tail vein at a dose of 0.5 mg/kg (0.5 mg here referring to the dose of mRNA). In order to observe the expression of luciferase, the luciferase substrate was dissolved into a sterile PBS solution and prepared into a solution at a concentration of 30 mg/ml.
(§4) Six hours after injection of LNPs, 150 ul of luciferase substrate solution was injected intraperitoneally into each mouse. The mice were allowed to stand for 5 min, and then anesthetized for 3 min in a carbon dioxide box. After anesthesia, the mice were put in a small animal in vivo imager for imaging.

luciferase [3] = assay: Subretinal injection in mice, chemiluminescence from Luc-eGFP mRNA delivered by lipid nanoparticles; format: in vivo, Female C57/BL6 mice; details: LNP ionizable lipid:DSPC:cholesterol:DSPE-PEG2000 = 50:10:39.5:0.5, both eyes, 0.9 μg (±10%) mRNA per eye
Description: as §3
as §4, with “Imaging in mice: 18” for “Six”, “drug administration,” for “injection of LNPs,”, “μl” for “ul”

[4] = LNP with helper lipid DSPC, ionizable lipid:helper lipid:cholesterol:DMG-PEG2000 = 50:10:38.5:1.5, Luc-eGFP mRNA:total lipids 1:30
[5] = LNP ionizable lipid:DSPC:cholesterol:DSPE-PEG2000 = 50:10:39.5:0.5, Luc-eGFP mRNA
[6] = LNP with helper lipid DOPE, ionizable lipid:helper lipid:cholesterol:DMG-PEG2000 = 50:10:38.5:1.5, Luc-eGFP mRNA:total lipids 1:30

| SMILES | PDI [1, 4] | Particle Size [1, 4] | Nucleic Acid Encapsulation Efficiency (Luc-eGFP mRNA; [4]) | Luminous Intensity 6 h (luciferase [2]; LNP with helper lipid DSPC) | PDI [1, 5] | Particle Size [1, 5] | Nucleic Acid Encapsulation Efficiency (Luc-eGFP mRNA; [5]) | Luminous Intensity 18 h (luciferase [3]) | PDI [1, 6] | Particle Size [1, 6] | Nucleic Acid Encapsulation Efficiency (Luc-eGFP mRNA; [6]) | Luminous Intensity 6 h (luciferase [2]; LNP with helper lipid DOPE) |
| --- | --- | --- | --- | --- | --- | --- | --- | --- | --- | --- | --- | --- |
| CCCCCCCCC(CCCC)C(=O)OCCCCCCN(CCCCCCOC(=O)C(CCCCCC)CCCCCCCC)CCOC(=O)NCCN(CC)CC (stereo not shown) [Compound 12] | 0.22 | 123 nm | 97.58% | 3.1E+8 p/s/cm^2/sr | – | – | – | – | – | – | – | – |
| CCCCC/C=C\C/C=C\CCCCCCCCC(CCCCCCCC/C=C\C/C=C\CCCCC)OC(=O)CCCN(C)C [MC3, DLin-MC3-DMA, reference compound] | – | – | – | 1.35E+8 p/s/cm^2/sr | 0.24 | 149.0 nm | 96.6% | 5E+6 p/s/cm^2/sr | – | – | – | – |
| CCCCCCCCCOC(=O)CCCCCCCN(CCCCCCCC(=O)OC(CCCCCCCC)CCCCCCCC)CCOC(=O)NCCN(C)CC [Compound 15] | – | – | – | – | 0.22 | 149.7 nm | 98.2% | 2.6E+7 p/s/cm^2/sr | – | – | – | – |
| CCCCCCCCC(CCCCCC)C(=O)OCCCCCCN(CCCCCCOC(=O)C(CCCCCC)CCCCCCCC)CCOC(=O)NCCN(CC)CC (stereo not shown) [Compound 1] | 0.135 | 111.7 nm | 93.01% | 3.4E+8 p/s/cm^2/sr | – | – | – | – | 0.082 | 99.86 nm | 95.42% | 1.6E+9 p/s/cm^2/sr |
| CCCCCCCCCOC(=O)CCCCCCCN(CCCCCCCC(=O)OC(CCCCCCCC)CCCCCCCC)CCOC(=O)NCCN(CC)CC [Compound 18] | – | – | – | – | 0.14 | 121.7 nm | 96.0% | 1E+7 p/s/cm^2/sr | – | – | – | – |
| CCCCCCCCC(CCCCCC)C(=O)OCCCCCCN(CCCCCCOC(=O)C(CCCCCC)CCCCCCCC)CCOC(=O)NCCN(C)CC (stereo not shown) [Compound 2] | – | – | – | – | 0.19 | 147.2 nm | 99.3% | 2E+8 p/s/cm^2/sr | – | – | – | – |
| CCCCCCCCCOC(=O)CCCCCCCN(CCCCCCCC(=O)OC(CCCCCCCC)CCCCCCCC)CCOC(=O)NCCCN(C)C [Compound 17] | – | – | – | – | 0.36 | 90.31 nm | 99.4% | 3.4E+8 p/s/cm^2/sr | – | – | – | – |
| CCCCCCCCC(C)C(=O)OCCCCCCN(CCCCCCOC(=O)C(CCCCCC)CCCCCCCC)CCOC(=O)NCCN(CC)CC (stereo not shown) [Compound 11] | 0.215 | 96.88 nm | 97.13% | 7.2E+7 p/s/cm^2/sr | – | – | – | – | – | – | – | – |

Source: patent US20260294810A1, “IONIZABLE LIPID COMPOUND, LIPID CARRIER COMPRISING SAME, AND APPLICATION” (INNOVEC BIOTHERAPEUTICS, priority 2023, published 2026)
